Measurements reported in US20160279043A1, “COMBINATIONS OF N-ACETYL CYSTEINE DERIVATIVES AND CRANBERRY POLYPHENOLS IN COMPOSITIONS AND METHODS FOR PREVENTING AND TREATING PERIODONTAL DISEASES AND PERI-IMPLATITIS” (DENTALMED PHARM HOLDING LTD., priority 2013, published 2016).
Entries after “also recorded” stand apart in the source; their conditions may differ.

What was measured:
[1] = test system: Aggregibcater actynomycetemcomitans; experiment: Biofilm MBEC; format: cell-based, Aggregibcater actynomycetemcomitans (ATCC 43717); settings: Compound A alone
Protocol: (§1) MBEC is defined as the minimum concentration of test compound that inhibits growth of the biofilm. The recovery plate prepared according to the description above was incubated at 37° C. for 24 hours and read visually to determine MBEC values. A microtiter plate reader was used to obtain optical density measurements at 630 nm (OD630). Clear wells (OD630<0.1) ware evidence of biofilm eradication.

[2] = test system: Aggregibcater actynomycetemcomitans; experiment: Planktonic MIC; format: cell-based, Aggregibcater actynomycetemcomitans (ATCC 43717); settings: Compound A alone; 24 hours
Protocol: (§2) The MIC (minimum inhibitory concentration) for the compound was determined for each organism shed from the biofilm during the challenge incubation. The MIC was defined as the minimum concentration that inhibits growth of the organism.

[3] = test system: Aggregibcater actynomycetemcomitans; experiment: Planktonic minimum bactericidal concentration (MBC); format: cell-based, Aggregibcater actynomycetemcomitans (ATCC 43717); settings: Compound A alone; 24 hours contact
Protocol: (§3) After the specified contact time (24 hours), 20 μL from each well of the challenge plate were removed and placed into the corresponding wells of a fresh 96 well Nunc plate containing 180 μL OSM. The plate was incubated at 37° C. for 24 hours.

Porphyromonas gingivalis [4] = experiment: Planktonic MIC; format: cell-based, Porphyromonas gingivalis (ATCC 33277); settings: Compound A alone; 24 hours
Protocol: as §2

[5] = test system: Aggregibcater actynomycetemcomitans; experiment: Growth inhibition, LOG10 reduction; format: cell-based, Aggregibcater actynomycetemcomitans (ATCC 43717)
Protocol: (§4) Using a cryogenic stock (at −70° C.), a first sub-culture of the bacterial organisms listed above was streaked out on an organism specific agar (OSA). The bacterium was incubated at appropriate growth conditions for 24-48 hours and the plate was stored wrapped in parafilm at 4° C. for the aerobic strain (Aggregibcater actynomycetemcomitans) and 21° C. in the anaerobic chamber for anaerobic strain (Porphyromonas gingivalis). From the first sub-culture, a second sub-culture was streaked out on OSA. It was incubated at appropriate growth conditions for 24-48 hours. The second sub-culture was used within 24 hours starting from the time it was first removed from incubation. Using the second sub-culture, an isolated colony was aseptically removed from the OSA plate and inoculated into 100 mL of sterile bacterial liquid growth broth. The latter was incubated at 150 rpm at appropriate growth conditions for 24-24 hour. This yielded a viable bacterial density of approximately 10^9 CFU/mL and was checked by serial dilution and plating. The inoculum was adjusted to an approximate cell density of 10^6 CFU/mL by diluting in organism specific broth (OSB). The diluted organism was vortexed for approximately 10 seconds to achieve uniform mixing of the organism. One sample (100 μL) of the diluted organism was used for an inoculum check by serially diluting and spot plating on OSA in triplicate. It should be noted that for the anaerobic microorganism, growth, sonication, serial dilution, transfer and recovery of the organism was performed under anaerobic conditions (5% H2, 10% CO2, 85% N2).
(§5) Biofilms were tested using the specified contact times. Callenge plates were used for testing the killing activity of the tested biocidic compounds on formed biofilm and other plates to test the inhibitory effect of biofilm formation. SC wells served as sterility controls for each experiment. One challenge plate was used per growth condition and challenge time. GC is the growth control. GCh is the biofilm Growth Check.
(§6) Using a sterile 96-well microtitre plate the following was done aseptically to set up the above challenge plates. 200 μL of sterile OSM was added to wells that served as the device sterility control for the media and for biofilm growth checks. 200 μL of sterile neutralizer was added to wells that served as the neutralizer toxicity control. 100 μL of the neutralizer and 100 μL of each of the tested compounds or combinations were added to wells serving as neutralizer affectivity control. 200 μL of biocide stock solution was added to wells which served as the biocide diluent sterility control. Serial dilutions of the tested compounds and combinations in the diluents (OSM) were performed. Each freshly prepared challenge plate was aseptically covered and left to stand at room temperature for 30 minutes to equilibrate prior to use.
(§7) Following sonication of all plates, 100 μL was placed from each well of the MBEC™ plate into the first 12 empty wells of the first row of a 96 well-micro titer plate. 180 μL of sterile 0.9% saline were placed in the remaining rows. A Serial dilution (10^0-10^−7) was performed by moving 20 μL down each of the 8 rows. 10 μL were removed from each well and spot plated on prepared OSA plates. Plates were incubated at 37±1° C. and counted after approximately 24-48 hours of incubation. The data obtained was evaluated as Log 10 CFU/peg. 100 μL of the sterile neutralizer were placed in each well of the recovery plate to top up the volume back to 200 μL.
(§8) LOG10 Reduction=Mean LOG10 Growth Control−Mean LOG10 Test.

Porphyromonas gingivalis [6] = experiment: Biofilm MBEC; format: cell-based, Porphyromonas gingivalis (ATCC 33277); settings: Compound A alone
Protocol: as §1

Porphyromonas gingivalis [7] = experiment: Growth inhibition, LOG10 reduction; format: cell-based, Porphyromonas gingivalis (ATCC 33277)
Protocol: as §4, §5, §6, §7, §8

[8] = test system: Aggregibcater actynomycetemcomitans; experiment: Pre-formed biofilm challenge, MBEC P&G assay, LOG10 reduction; format: cell-based, Aggregibcater actynomycetemcomitans (ATCC 43717)
Protocol: (§9) Sterile MBEC™ P&G plates coated with Hydroxyapatite were used for biofilm growth. The plates consist of plastic lids with 96 protruding polystyrene pegs that have each been coated with hydroxyapatite and a corresponding 96 well base into which the inoculum is placed. The bacterial inoculum for each plate is 150 μL in each well (Innovotech Inc., Edmonton, Alberta, Canada).
as §4
(§10) Each bacterial over-night culture was diluted 1,000× in its specific OSM. Using a micro pipette, 150 μL of inoculum was added to the appropriate wells of a 96 well plate, except for wells that served as sterility controls (SC). Sterility control wells received sterile OSB. The HA MBEC™ P&G lid was then inserted into the 96-well bottom. It should be noted that the volume of inoculum used in this step has been calibrated such that the biofilm covers a surface area that is immersed, entirely, by the volume of antimicrobials used in the challenge plate set up. The device was placed on the gyrorotary shaker in a humidified incubator and incubated at 110 rpm at the appropriate growth conditions. Porphyromonas gingivalis was incubated for 24 hours, and Aggregibcater actynomycetemcomitans was incubated for 48 hours. A triplicate sample of the inoculum was serially diluted (ten-fold). The latter served as controls used to verify the starting cell number in the inoculum. The serial 10-fold dilutions of the inoculum from 10^−7 to 10^0 were spot plated on an appropriately labeled series of agar plates. The spot plates were incubated for an appropriate period of time and scored for growth.
(§11) The biofilm growth check (GCh) pegs were broken off from the challenge plate with flamed pliers. Each peg was placed into 200 μL of neutralizer in row A of serial dilution plate. The plates were sonicated for 30 minutes. Then serial dilution and spot plating on OSA was performed, which served as a biofilm growth check.
as §5, with “Check. […]” for “Check.”

Porphyromonas gingivalis [9] = experiment: Planktonic minimum bactericidal concentration (MBC); format: cell-based, Porphyromonas gingivalis (ATCC 33277); settings: Compound A alone; 24 hours contact
Protocol: as §3

Porphyromonas gingivalis [10] = experiment: Pre-formed biofilm challenge, MBEC P&G assay, LOG10 reduction; format: cell-based, Porphyromonas gingivalis (ATCC 33277)
Protocol: as §9, §4, §10, §11
as §5, with “Check. […]” for “Check.”

[11] = Compound A, all tested concentrations

Structure (SMILES): CC(=O)N[C@@H](CS)C(=O)O [Compound A, N-acetyl cysteine]
- MBEC Cut-off, A.a. [1]: >20%
- MIC Cut-off, A.a. [2]: 10%
- MBC Cut-off, A.a. [3]: >20%
- MIC Cut-off, P. gingivalis (Porphyromonas gingivalis [4]): >20%
- Log Reduction, Growth Inhibition, A.a. ([5]; Compound A 0.15%): 0.24 log
- Log Reduction, Growth Inhibition, A.a. ([5]; Compound A 0.31%): 0.28 log
- Log Reduction, Growth Inhibition, A.a. ([5]; Compound A 0.62%): 0.74 log
- Log Reduction, Growth Inhibition, A.a. ([5]; Compound A 1.25%): 1.04 log
- Log Reduction, Growth Inhibition, A.a. ([5]; Compound A 2.50%): 1.13 log
- Log Reduction, Growth Inhibition, A.a. ([5]; Compound A 5%): 2.05 log
- Log Reduction, Growth Inhibition, A.a. ([5]; Compound A 10%): 6.34 log
- Log Reduction, Growth Inhibition, A.a. ([5]; Compound A 20%): 6.34 log
- Inhibiting growth of A.a. (in words) ([5]; Compound A, only at 20% and 10% of the stock concentration): effective at inhibiting growth
- MBEC Cut-off, P. gingivalis (Porphyromonas gingivalis [6]): >20%
- Log Reduction, Growth Inhibition, P. gingivalis (Porphyromonas gingivalis [7]; Compound A 0.15%): −0.89 log
- Log Reduction, Growth Inhibition, P. gingivalis (Porphyromonas gingivalis [7]; Compound A 0.31%): −0.05 log
- Log Reduction, Growth Inhibition, P. gingivalis (Porphyromonas gingivalis [7]; Compound A 0.62%): 0.35 log
- Log Reduction, Growth Inhibition, P. gingivalis (Porphyromonas gingivalis [7]; Compound A 1.25%): 0.44 log
- Log Reduction, Growth Inhibition, P. gingivalis (Porphyromonas gingivalis [7]; Compound A 2.50%): 0.11 log
- Log Reduction, Growth Inhibition, P. gingivalis (Porphyromonas gingivalis [7]; Compound A 5%): −0.19 log
- Log Reduction, Growth Inhibition, P. gingivalis (Porphyromonas gingivalis [7]; Compound A 10%): −0.71 log
- Log Reduction, Growth Inhibition, P. gingivalis (Porphyromonas gingivalis [7]; Compound A 20%): 0.36 log
- Inhibiting growth of P. gingivalis (in words) (Porphyromonas gingivalis [7]; [11]): ineffective; also recorded: No inhibition
- Log Reduction, Biofilm, A.a. ([8]; Compound A 0.15%): 0.51 log
- Log Reduction, Biofilm, A.a. ([8]; Compound A 0.31%): −0.02 log
- Log Reduction, Biofilm, A.a. ([8]; Compound A 0.62%): 0.23 log
- Log Reduction, Biofilm, A.a. ([8]; Compound A 1.25%): 0.36 log
- Log Reduction, Biofilm, A.a. ([8]; Compound A 2.50%): −0.01 log
- Log Reduction, Biofilm, A.a. ([8]; Compound A 5%): 0.39 log
- Log Reduction, Biofilm, A.a. ([8]; Compound A 10%): 3.02 log
- Log Reduction, Biofilm, A.a. ([8]; Compound A 20%): 3.25 log
- MBC Cut-off, P. gingivalis (Porphyromonas gingivalis [9]): >20%
- Log Reduction, Biofilm, P. gingivalis (Porphyromonas gingivalis [10]; Compound A 0.15%): 0.11 log
- Log Reduction, Biofilm, P. gingivalis (Porphyromonas gingivalis [10]; Compound A 0.31%): 0.07 log
- Log Reduction, Biofilm, P. gingivalis (Porphyromonas gingivalis [10]; Compound A 0.62%): −0.07 log
- Log Reduction, Biofilm, P. gingivalis (Porphyromonas gingivalis [10]; Compound A 1.25%): −0.18 log
- Log Reduction, Biofilm, P. gingivalis (Porphyromonas gingivalis [10]; Compound A 2.50%): 0.13 log
- Log Reduction, Biofilm, P. gingivalis (Porphyromonas gingivalis [10]; Compound A 5%): −0.18 log
- Log Reduction, Biofilm, P. gingivalis (Porphyromonas gingivalis [10]; Compound A 10%): −0.17 log
- Log Reduction, Biofilm, P. gingivalis (Porphyromonas gingivalis [10]; Compound A 20%): 0.13 log
- Reducing preformed biofilm of P. gingivalis (in words) (Porphyromonas gingivalis [10]; [11]): ineffective; also recorded: No inhibition or biofilm reduction
